The record followed here is US7232809B2, “Mitochondrially targeted antioxidants” (Antipodean Pharmaceuticals, Inc., priority 1997, dated 2007).

A short description of data set [1]: Octan-1-ol/PBS partition coefficient. The format is physicochemical. Particulars: 200 μM, room temperature, 1 h, means±SEM of three. As for the experimental part: (§1) The IC50 values for inhibition of lipid peroxidation were determined in rat brain homogenates, and are means±SEM or range of determinations on 2–3 brain preparations. Octan-1-ol/PBS partition coefficients are means±SEM for three independent determinations. N.D. not determined. Partition coefficients were determined by mixing 200 μM of the compound in 2 ml water-saturated octanol-1-ol with 2 ml octanol-saturated-PBS at room temperature for 1 h, then the two layers were separated by brief centrifugation and their concentrations determined spectrophotometrically from standard curves prepared in PBS or octanol. To measure antioxidant efficacy four rat brains were homogenised in 15 ml 40 mM potassium phosphate (pH 7.4), 140 mM NaCl at 4° C., particulate matter was pelleted (1,000×g at 4° C. for 15 min) and washed once and the combined supernatants stored frozen. Aliquots were rapidly thawed and 5 mg protein suspended in 800 μl PBS containing antioxidant or ethanol carrier and incubated at 37° C. for 30 min. Thiobarbituric acid reactive species (TBARS) were quantitated at 532 nm by adding 200 μl conc. HClO4 and 200 μl 1% thiobarbituric acid to the incubation, heating at 100° C. for 15 min and then cooling and clarification by centrifugation (10,000×g for 2 min).

For data set [2], the system named is rat liver mitochondria. Kind of data set: Effect of compound 1 on membrane potential and respiration rate of isolated mitochondria. Particulars: at the concentrations that afford protection.
Method: TPMP at 25° C. for 3 min. After the incubation mitochondria were pelleted by centrifugation and the [^3H] TPMP in the supernatant and pellet quantitated by scintilation counting and the membrane potential calculated assuming a volume of 0.5 μl/mg proteins and that 60% of intramitochondrial TPMP is membrane bound.
The subject of data set [3] is rat liver mitochondria. Put plainly: Protection of mitochondria against oxidative damage (TBARS, protein carbonyls). The format is biochemical. As for the experimental part: Mitochondria were exposed to oxidative stress by incubation with iron/ascorbate and the effect of compound 1 on oxidative damage assessed by measuring TBARS (filled bars) and protein carbonyls (open bars). Rat liver mitochondria (10 mg protein) were incubated at 25° C. in a shaking water bath in 2 ml medium containing 100 mM KCl, 10 mM Tris, pH 7.7, supplemented with rotenone (1.33 μg/ml), 10 mM succinate, 500 μM ascorbate and other additions. After preincubation for 5 min, 100 μM FeSO4 was added and 45–55 min later duplicate samples were removed and assayed for TBARS or protein carbonyls.
Energised rat liver mitochondria were exposed to tert-butylhydroperoxide and the effect of compound 1 (filled bars), α-tocopherol (open bars), compound 1+333 nM FCCP (stippled bars) or the simple lipophilic cation bromobutyl triphenylphosphonium (cross hatched bars) on TBARS formation determined.

Data set [4] deals with rat liver mitochondria. Put plainly: Protection of mitochondrial function (membrane potential) from iron/ascorbate oxidative damage. The format is biochemical. To be noted: 5 μM, compared with Vitamin E. On the procedure:
Energised rat liver mitochondria were incubated with iron/ascorbate with no additions (stippled bars), 5 μM compound 1 (filled bars), 5 μM α-tocopherol. (open bars) or 5 μM TPMP (cross hatched bars), and then isolated and the membrane potential generated by respiratory substrates measured relative to control incubations in the absence of iron/ascorbate. Rat liver mitochondria were incubated at 25° C. in a shaking water bath in 2 ml medium containing 100 mM KCl, 10 mM Tris, pH 7.7, supplemented with rotenone (1.33 μg/ml), 10 mM succinate, 500 μM ascorbate and other additions. […] TPMP either 10 mM glutamate and malate, 10 mM succinate and rotenone, or 5 mM ascorbate/100 μM TMPD with rotenone and myxothiazol (2 μg/ml), incubated at 25° C. for 3 min then pelleted and the membrane potential determined as above and compared with an incubation that had not been exposed to oxidative stress.

Data set [5] concerns 143B cells. Put plainly: Cell viability by lactate dehydrogenase release. The format is cell-based, human. To be noted: 24 h, LDH release, concentrations giving 2–4 mM intramitochondrial. On the procedure:
(§2) The next step was to determine whether compound 1 was accumulated by intact cells. […] A proportion of this uptake of compound 1 into cells was inhibited by blocking the plasma and mitochondrial membrane potentials (FIG. 9). This energisation-sensitive uptake corresponds to an intra mitochondrial concentration of compound 1 of about 2–4 mM, which is sufficient to protect mitochondria from oxidative damage.
Here, confluent 143B cells in 24 well tissue culture dishes were incubated with various concentrations of compound 1 for 24 h and cell viability measured by lactate dehydrogenase release.
For orientation: LDH leaks from cells whose membrane has failed.

The test system of another data set is rat brain homogenates. Put plainly: Inhibition of lipid peroxidation in rat brain homogenates (TBARS assay). The format is biochemical. To be noted: TBARS, read-out: concentration that inhibited oxidative stress by 50%. As for the experimental part:
The rat brain homogenates were incubated with or without various concentrations of the test compounds (compound 1; native Vitamin E (α-tocopherol), bromobutyl triphenylphosphonium bromide, Trolox (a water soluble form of Vitamin E) and compound 2, ie2-(2-bromoethyl)-3,4-dihydro-2,5,7,8-tetramethyl-2H-1-benzopyran-6-ol, the precursor of compound 1 (“Brom Vit E”)) and the oxidative damage occurring over the incubation was quantitated using the TBARS assay (Stocks et al., 1974, Clin Sci Mol Med 47,215–222). From this the concentration of compound required to inhibit oxidative damage by 50% was determined. In this system 210 nM compound 1 inhibited oxidative stress by 50% while the corresponding value for native Vitamin E was 36 nM. The value for bromobutyltriphenylphosphonium bromide, which contains the triphenylphosphonium moiety but not the antioxidant Vitamin E moiety was 47 μM. […] Further details of the experimental procedures and results are set out below.
as §1

The test system of data set [6] is 143B cells. Kind of data set: Uptake of compound 1 by intact cells. The format is cell-based, human. As for the experimental part: The mitochondrial specific accumulation of compound 1 also occurs in intact cells. This was measured as described by Burns and Murphy, 1997 and the accumulation was prevented by dissipating both the mitochondrial and plasma membrane potentials. […] Therefore the accumulation of compound 1 into cells is driven by the mitochondrial membrane potential.
as §2
Here 10^6 143B cells (closed symbols) or ρ° cells (open symbols) were incubated with 1 μM [3H] compound 1 and the compound 1 accumulation ratio determined. Human osteosarcoma 143B cells and a derived ρ° cell line lacking mitochondrial DNA were cultured in DMEM/10% FCS (foetal calf serum) supplemented with uridine and pyruvate under an atmosphere of 5% CO2/95% air at 37° C., grown to confluence and harvested for experiments by treatment with trypsin. To measure [^3H] compound 1 accumulation cells (10^6) were incubated in 1 ml HEPES-buffered DMEM. At the end of the incubation, cells were pelleted by centrifugation, the cell pellet and the supernatant prepared for scintillation counting and the accumulation ratio [compound 1/mg protein)/(compound 1/μl)]calculated.
Human osteosarcoma 143B cells were incubated in 1 ml HEPES-buffered DMEM with 1-50 μM compound 1 supplemented with 6–60 nCi/ml [^3H] compound 1. To determine the energistration-dependent uptake, parallel incubations with 12.5 μM oligomycin, 20 μM FCCP; 10 μM myxathiazol. 100 nM valinomycin and 1 mM ouabain were carried out. At the end of the incubation, cells were pelleted by centrifugation and prepared for scintillation counting and the energisation-sensitive uptake determined.

For data set [7], the system named is rat liver mitochondria. Kind of data set: Uptake of [3H] compound 1 by energised rat liver mitochondria.

With `Cc1c(C)c2c(c(C)c1O)CCC(C)(CC[P+](c1ccccc1)(c1ccccc1)c1ccccc1)O2` (centres unmarked) [compound 1], the “Octanol:PBS partition coefficient” value in data set [1] is 7.37 ± 1.56. Besides, in the data set on rat liver mitochondria [2], the damage to mitochondria entry is reported as “not damaging to mitochondria”. For the same compound, the “protection of mitochondria against oxidative damage (lipid peroxidation and protein carbonyl formation)” value in the data set with rat liver mitochondria [3] (mitochondria exposed to oxidative stress) was “protected them against oxidative damage”. Moreover, the “antioxidant protection with uncoupler FCCP” value in the data set on rat liver mitochondria [3] (mitochondria incubated with FCCP to prevent uptake) is “prevented”. Further, in the data set on rat liver mitochondria [4], the “protection of mitochondrial function (ability to generate a membrane potential)” value is recorded as “far more effectively than Vitamin E itself”. In the data set on 143B cells [5], the toxicity to cells result is “not toxic to cells”. Further, the IC50 in the data set with rat brain homogenates was determined as 210 nM. Moreover, the “intra mitochondrial concentration from energisation-sensitive uptake” value in the data set with 143B cells [6] (143B cells, 1 h incubation) is 2 to 4 mM. In the data set on 143B cells [6] (cells without mitochondrial membrane potential), the “accumulation by cells containing defective mitochondria” value is “not accumulated”. Further, in the data set on 143B cells [6] (intact 143B cells), the “accumulation by intact cells” value is “rapidly accumulated”. Also, the “time for reversal of accumulation by FCCP” value with rat liver mitochondria [7] (FCCP added after accumulation) was less than 10 s. Also, the “effect of uncoupler FCCP on accumulation into mitochondria” value with rat liver mitochondria [7] (addition of FCCP) is “blocked”. Moreover, the “time for uptake into mitochondria” value with rat liver mitochondria [7] (energised rat liver mitochondria) is reported as less than 10 s. For the same compound, the “accumulation ratio into mitochondria” value in the data set on rat liver mitochondria [7] (energised rat liver mitochondria, membrane potential about 180 mV) was “about 6,000”. Besides, the “proportion membrane-bound within mitochondria” value with rat liver mitochondria [7] (inferred from uptake of TPMP and compound 1 at the same membrane potential) was “about 84%”. Also, the intramitochondrial concentration with rat liver mitochondria [7] (isolated mitochondria, range of concentrations of compound 1 (FIG. 2)) lay within 4 to 8 mM. In the data set with rat liver mitochondria [7] (range of membrane potentials, 10 μM compound 1, 1 μM TPMP, 3 min), the “slope of accumulation ratio of compound 1 relative to that of TPMP” value came out at 2.472.
